Test results as given in patent US20250120980A1, “DIBENZ[…] AND USE IN […] PROTEIN AGONISTS THEREOF” (priority 2023, published 2025).
Values joined by “and” are separate entries in the source; they are usually repeats but may differ in a detail not shown here. Equal entries are not always repeated.

What was measured:
Format in all cases: cell-based
[1] = tested on: STING pathway (IFNb gene expression) in L929 mouse epithelial-like fibroblasts
IAV (influenza virus) = tested on: IAV (influenza virus)
[2] = tested on: VSV-GFP (vesicular stomatitis virus)
[3] = tested on: PRV-GFP (porcine pseudorabies virus)

O=C1Cc2ccccc2Nc2c(Cl)cccc21 [Compound 15, 6-chloro-5,11-dihydro-10H-dibenzo[b,f]aza-10-one]
IFNb mRNA expression 2-^ΔΔCt value [1]: 1.61

COc1ccc2c(c1)Nc1c(ccc(C)c1C)C(=O)C2 [Compound 18, 3-methoxy-6,7-dimethyl-5,11-dihydro-10H-dibenzo[b,f]aza-10-one]
IFNb mRNA expression 2-^ΔΔCt value [1]: 8.76 and 6.92 and 6.07 and 5.62 | M1 (M gene of influenza virus) Ct value (IAV (influenza virus)): 19.52 and 19.47 and 19.51 | Infection Rate, VSV-GFP [2]: 13.9% and 12.5% and 12.9% | proportion of VSV-GF infected cells (in words) [2]: significantly reduced | Infection Rate, PRV-GFP [3]: 18.3% and 18.1% | proportion of PRV-GFP infected cells (in words) [3]: significantly reduced

COc1ccc2c(c1)CC(=O)c1ccc(C)c(C)c1N2 [Compound 19, 2-methoxy-6,7-dimethyl-5,11-dihydro-10H-dibenzo[b,f]aza-10-one]
M1 (M gene of influenza virus) Ct value (IAV (influenza virus)): 21.37 and 21.39 and 21.49 | Infection Rate, VSV-GFP [2]: 99% and 91.1% and 90.5% | proportion of VSV-GF infected cells (in words) [2]: significantly reduced | Infection Rate, PRV-GFP [3]: 51% and 55.7% and 50.2% | proportion of PRV-GFP infected cells (in words) [3]: significantly reduced

Cc1ccc2c(c1C)Nc1ccccc1CC2=O [Compound 11, 6,7-dimethyl-5,11-dihydro-10H-dibenzo[b,f]aza-10-one]
M1 (M gene of influenza virus) Ct value (IAV (influenza virus)): 18.71 and 18.62 and 18.68 | Infection Rate, VSV-GFP [2]: 40% and 31.1% and 33.7% | proportion of VSV-GF infected cells (in words) [2]: significantly reduced | Infection Rate, PRV-GFP [3]: 13.1% and 14.2% and 13.5% | proportion of PRV-GFP infected cells (in words) [3]: significantly reduced

Cc1ccc2c(c1C)Nc1cc(F)ccc1CC2=O [Compound 13, 3-fluoro-6,7-dimethyl-5,11-dihydro-10H-dibenzo[b,f]aza-10-one]
IFNb mRNA expression 2-^ΔΔCt value [1]: 2.97 and 2.37 and 2.48 and 3.34 | M1 (M gene of influenza virus) Ct value (IAV (influenza virus)): 19.45 and 20.25 and 19.66 | Infection Rate, VSV-GFP [2]: 94.3% and 92.7% and 92.1% | proportion of VSV-GF infected cells (in words) [2]: significantly reduced | Infection Rate, PRV-GFP [3]: 7.06% and 8.55% and 7.42% | proportion of PRV-GFP infected cells (in words) [3]: significantly reduced

COc1ccc2c(c1)C(=O)Cc1ccccc1N2 [Compound 17, 8-methoxy-5,11-dihydro-10H-dibenzo[b,f]aza-10-one]
IFNb mRNA expression 2-^ΔΔCt value [1]: 1.54

O=C1Cc2ccccc2Nc2ccccc21 [Compound 14, 5,11-dihydro-10H-dibenzo[b,f]aza-10-one]
M1 (M gene of influenza virus) Ct value (IAV (influenza virus)): 18.99 and 19.52 and 19.69 | Infection Rate, VSV-GFP [2]: 76.1% and 66.5% and 65.8% | proportion of VSV-GF infected cells (in words) [2]: significantly reduced | Infection Rate, PRV-GFP [3]: 17.1% and 19.5% and 19.8% | proportion of PRV-GFP infected cells (in words) [3]: significantly reduced
